# Results from patent US20230310445A1, “LOX ENZYME INHIBITING METHODS AND COMPOSITIONS” (ANOVIA BIOSCIENCES, INC., priority 2020, published 2023).
# Biological target: T1, Bovine lysyl oxidase (LOX) (Bos taurus, UniProt P33072)
# T1 construct: from tissue; host or cells: adult bovine tendon
# T1 sequence (P33072 170-418): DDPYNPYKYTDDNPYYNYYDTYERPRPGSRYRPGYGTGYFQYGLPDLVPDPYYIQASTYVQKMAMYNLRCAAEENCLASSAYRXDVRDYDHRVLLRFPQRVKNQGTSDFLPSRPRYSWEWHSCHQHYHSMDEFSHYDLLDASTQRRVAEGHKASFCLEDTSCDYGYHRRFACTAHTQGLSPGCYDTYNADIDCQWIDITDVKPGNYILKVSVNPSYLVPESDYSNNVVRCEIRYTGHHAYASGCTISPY
# Assay: LOX inhibition assay (fluorometric, cadaverine/Amplex Red/HRP)
# Assay type: biochemical
# Conditions: IC50 class; bovine tendon LOX, cadaverine substrate; read-out: Activity Range LOX
# Outline: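 Bovine tendon-extracted LOX was preincubated 30 min at 37 °C with compound. Cadaverine/Amplex Red/HRP was then added and fluorescence (ex530/em600) monitored for 120 min at 37 °C. Progress-curve slopes, background-subtracted against no-protein wells, were normalised to DMSO controls and fitted with a four-parameter variable-slope dose-response model.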
row,SMILES,IC50
1,"NCc1ccnc(S(=O)(=O)N2C[C@@H](C(=O)N3CCS(=O)(=O)CC3)C[C@@H](c3ccccc3)C2)c1 (racemic) [Example 134, cis-(1-((4-(Aminomethyl)pyridin-2-yl)sulfonyl)-5-phenylpiperidin-3-yl)(1,1-dioxidothiomorpholino)methanone 2,2,2-trifluoroacetate]",1 to 30 µM
2,"CN(C)C(=O)[C@H]1C[C@@H](C2CCCCC2)CN(S(=O)(=O)c2cccc(CN)c2)C1 (relative stereo) [Example 138, cis-1-((3-(Aminomethyl)phenyl)sulfonyl)-5-cyclohexyl-N,N-dimethylpiperidine-3-carboxamide 2,2,2-trifluoroacetate]",> 30 µM
3,"CS(=O)(=O)[C@@H]1C[C@@H](S(=O)(=O)c2cccc(CN)c2)CN(c2ccccc2)C1 (racemic) [Example 79, trans-(3-((-5-(Methylsulfonyl)-1-phenylpiperidin-3-yl)sulfonyl)phenyl)methanamine]",> 30 µM
4,"CS(=O)(=O)[C@H]1C[C@@H](S(=O)(=O)c2cccc(CN)c2)CN(c2ccccc2F)C1 (racemic) [Example 92, cis-(3-((-1-(2-Fluorophenyl)-5-(methylsulfonyl)piperidin-3-yl)sulfonyl)phenyl)methanamine 2,2,2-trifluoroacetate]",> 30 µM
5,"CS(=O)(=O)N1CCN(C(=O)[C@H]2C[C@@H](c3ccccc3F)CN(S(=O)(=O)c3ccc(CN)s3)C2)CC1.O=C(O)C(F)(F)F (racemic) [Example 91, cis-(1-((5-(Aminomethyl)thiophen-2-yl)sulfonyl)-5-(2-fluorophenyl)piperidin-3-yl)(4-(methylsulfonyl)piperazin-1-yl)methanone 2,2,2-trifluoroacetate]",≤ 0.5 µM
6,"NCc1ccc(S(=O)(=O)N2C[C@H](C(=O)N3CCS(=O)(=O)CC3)C[C@@H](c3ccccc3)C2)s1.O=C(O)C(F)(F)F (racemic) [Example 75B, trans-(1-((5-(Aminomethyl)thiophen-2-yl)sulfonyl)-5-phenylpiperidin-3-yl)(1,1-dioxidothiomorpholino)methanone 2,2,2-trifluoroacetate]",≤ 0.5 µM
7,"NCc1ccnc(S(=O)(=O)N2C[C@H](C(=O)N3CCOCC3)C[C@H](c3ccccc3)C2)c1 [Example 133B, ((3R,5R)-1-((4-(aminomethyl)pyridin-2-yl)sulfonyl)-5-phenylpiperidin-3-yl)(morpholino)methanone 2,2,2-trifluoroacetate]",1 to 30 µM
8,"NCc1ccnc(S(=O)(=O)N2C[C@@H](C(=O)N3CCOCC3)C[C@@H](c3ccccc3)C2)c1 [Example 133A, ((3S,5S)-1-((4-(aminomethyl)pyridin-2-yl)sulfonyl)-5-phenylpiperidin-3-yl)(morpholino)methanone 2,2,2-trifluoroacetate]",1 to 30 µM
9,"NCc1cccc(S(=O)(=O)N2C[C@H](C(=O)N3CCS(=O)(=O)CC3)C[C@@H](c3ccccc3)C2)n1 (racemic) [Example 115T, trans-(1-((6-(Aminomethyl)pyridin-2-yl)sulfonyl)-5-phenylpiperidin-3-yl)(1,1-dioxidothiomorpholino)methanone 2,2,2-trifluoroacetate]",> 30 µM
10,"NCc1ccnc(S(=O)(=O)N2C[C@@H](C(=O)N3CCOCC3)C[C@@H](c3ccccc3)C2)c1 (relative stereo) [Example 133, cis-(1-((4-(Aminomethyl)pyridin-2-yl)sulfonyl)-5-phenylpiperidin-3-yl)(morpholino)methanone 2,2,2-trifluoroacetate]",1 to 30 µM
11,"NCc1ccc(S(=O)(=O)N2C[C@H](C(=O)N3CCOCC3)C[C@H](c3ccccc3)C2)s1 [Example 13B, ((3R,5R)-1-((5-(aminomethyl)thiophen-2-yl)sulfonyl)-5-phenylpiperidin-3-yl)(morpholino)methanone]",≤ 0.5 µM
12,"CS(=O)(=O)N1C[C@H](Oc2cccc(CN)c2)C[C@H](c2ccccc2F)C1 (racemic) [Example 70, cis-(3-((5-(2-Fluorophenyl)-1-(methylsulfonyl)piperidin-3-yl)oxy)phenyl)methanamine 2,2,2-trifluoroacetate]",> 30 µM
13,"NCc1cccc(S(=O)(=O)N2C[C@@H](C(=O)N3CCS(=O)(=O)CC3)C[C@@H](C3CCCCC3)C2)c1 (racemic) [Example 140, cis-(1-((3-(Aminomethyl)phenyl)sulfonyl)-5-cyclohexylpiperidin-3-yl)(1,1-dioxidothiomorpholino)methanone]",> 30 µM
14,"NCc1ccnc(S(=O)(=O)N2C[C@@H](C(=O)N3CCS(=O)(=O)CC3)C[C@@H](C3CCCCC3)C2)c1.O=C(O)C(F)(F)F (racemic) [Example 146, cis-(1-((4-(Aminomethyl)pyridin-2-yl)sulfonyl)-5-cyclohexylpiperidin-3-yl)(1,1-dioxidothiomorpholino)methanone 2,2,2-trifluoroacetate]",1 to 30 µM
15,"NCc1cccc(S(=O)(=O)N2C[C@@H](C(=O)N3CCOCC3)C[C@@H](C3CCCCC3)C2)c1 (racemic) [Example 139, cis-(1-((3-(Aminomethyl)phenyl)sulfonyl)-5-cyclohexylpiperidin-3-yl)(morpholino)methanone]",> 30 µM
16,"NCc1ccc(S(=O)(=O)N2C[C@@H](C(=O)N3CCOCC3)C[C@@H](C3CCCCC3)C2)s1.O=C(O)C(F)(F)F (racemic) [Example 120, cis-(1-((5-(Aminomethyl)thiophen-2-yl)sulfonyl)-5-cyclohexylpiperidin-3-yl)(morpholino)methanone 2,2,2-trifluoroacetate]",≤ 0.5 µM
17,"CN(C)C(=O)[C@H]1C[C@@H](C2CCCCC2)CN(S(=O)(=O)c2cc(CN)ccn2)C1 (racemic) [Example 144, cis-1-((4-(Aminomethyl)pyridin-2-yl)sulfonyl)-5-cyclohexyl-N,N-dimethylpiperidine-3-carboxamide 2,2,2-trifluoroacetate]",1 to 30 µM
18,"NCc1cccc(S(=O)(=O)N2C[C@H](C(=O)N3CCS(=O)(=O)CC3)C[C@@H](c3ccccc3)C2)c1 (racemic) [Example 85, trans-(1-((3-(Aminomethyl)phenyl)sulfonyl)-5-phenylpiperidin-3-yl)(1,1-dioxidothiomorpholino)methanone 2,2,2-trifluoroacetate]",> 30 µM
19,"CS(=O)(=O)[C@H]1C[C@@H](S(=O)(=O)c2cccc(CN)c2)CN(c2ccccc2)C1 (racemic) [Example 23, cis-(3-((-5-(Methylsulfonyl)-1-phenylpiperidin-3-yl)sulfonyl)phenyl)methanamine]",> 30 µM
20,"CN(C)C(=O)N1C[C@@H](c2ccccc2)C[C@@H](S(=O)(=O)c2cccc(CN)c2)C1.O=C(O)C(F)(F)F (racemic) [Example 74, cis-3-((3-(Aminomethyl)phenyl)sulfonyl)-N,N-dimethyl-5-phenylpiperidine-1-carboxamide 2,2,2-trifluoroacetate]",> 30 µM
21,"NCc1ccnc(S(=O)(=O)N2C[C@@H](C(=O)N3CCOCC3)C[C@@H](C3CCCCC3)C2)c1 (racemic) [Example 145, cis-(1-((4-(Aminomethyl)pyridin-2-yl)sulfonyl)-5-cyclohexylpiperidin-3-yl)(morpholino)methanone 2,2,2-trifluoroacetate]",1 to 30 µM
